The assay concerns the target T1, canine TRPM8 (Canis lupus familiaris, UniProt Q1A7N1).
T1 construct: expressed in transfected cells
Briefly: In vitro canine TRPM8 functional assay (Ca2+-sensitive fluorescent dye, FLIPR or FDSS, icilin challenge). Format: cell-based. The following applies: HEK293 cells stably expressing canine TRPM8; for inhibition at 0.2 µM: 0.2 μM compound, icilin challenge; for IC50: icilin at approx. 80% maximal response, eight-point dose-response, single determinations unless otherwise noted, read-out: IC50. As for the experimental part:
The functional activity of compounds of the formula (I) was determined by measuring changes in intracellular calcium concentration using a Ca^2+-sensitive fluorescent dye. The changes in fluorescent signal were monitored by a fluorescence plate reader, either a FLIPR™ (Molecular Devices) or FDSS (Hamamatsu).
At 24 hrs prior to assay, HEK293 cells stably expressing canine TRPM8 were seeded in culture medium in black wall, clear-base poly-D-lysine coated 384-well plates (BD Biosciences, NJ, USA) and grown overnight in 5% CO2 at 37° C. On assay day, growth media was removed and cells were loaded with Calcium 3 Dye (Molecular Devices) for 35 min at 37° C., under 5% CO2 and then for 25 min at room temperature and atmosphere. Subsequently, cells were tested for agonist-induced increases in intracellular Ca^2+ levels using FLIPR™ or FDSS. Cells were challenged with a compound of the Formula (I) (at varying concentrations) and intracellular Ca^2+ was measured for 5 min prior to the addition of icilin to all wells to achieve a final concentration that produces approximately an 80% maximal response. EC50 or IC50 values for compounds of the present invention were determined from eight-point dose-response studies. Curves were generated using the average of quadruplicate wells for each data point.

T1 sequence (Q1A7N1 1-1104): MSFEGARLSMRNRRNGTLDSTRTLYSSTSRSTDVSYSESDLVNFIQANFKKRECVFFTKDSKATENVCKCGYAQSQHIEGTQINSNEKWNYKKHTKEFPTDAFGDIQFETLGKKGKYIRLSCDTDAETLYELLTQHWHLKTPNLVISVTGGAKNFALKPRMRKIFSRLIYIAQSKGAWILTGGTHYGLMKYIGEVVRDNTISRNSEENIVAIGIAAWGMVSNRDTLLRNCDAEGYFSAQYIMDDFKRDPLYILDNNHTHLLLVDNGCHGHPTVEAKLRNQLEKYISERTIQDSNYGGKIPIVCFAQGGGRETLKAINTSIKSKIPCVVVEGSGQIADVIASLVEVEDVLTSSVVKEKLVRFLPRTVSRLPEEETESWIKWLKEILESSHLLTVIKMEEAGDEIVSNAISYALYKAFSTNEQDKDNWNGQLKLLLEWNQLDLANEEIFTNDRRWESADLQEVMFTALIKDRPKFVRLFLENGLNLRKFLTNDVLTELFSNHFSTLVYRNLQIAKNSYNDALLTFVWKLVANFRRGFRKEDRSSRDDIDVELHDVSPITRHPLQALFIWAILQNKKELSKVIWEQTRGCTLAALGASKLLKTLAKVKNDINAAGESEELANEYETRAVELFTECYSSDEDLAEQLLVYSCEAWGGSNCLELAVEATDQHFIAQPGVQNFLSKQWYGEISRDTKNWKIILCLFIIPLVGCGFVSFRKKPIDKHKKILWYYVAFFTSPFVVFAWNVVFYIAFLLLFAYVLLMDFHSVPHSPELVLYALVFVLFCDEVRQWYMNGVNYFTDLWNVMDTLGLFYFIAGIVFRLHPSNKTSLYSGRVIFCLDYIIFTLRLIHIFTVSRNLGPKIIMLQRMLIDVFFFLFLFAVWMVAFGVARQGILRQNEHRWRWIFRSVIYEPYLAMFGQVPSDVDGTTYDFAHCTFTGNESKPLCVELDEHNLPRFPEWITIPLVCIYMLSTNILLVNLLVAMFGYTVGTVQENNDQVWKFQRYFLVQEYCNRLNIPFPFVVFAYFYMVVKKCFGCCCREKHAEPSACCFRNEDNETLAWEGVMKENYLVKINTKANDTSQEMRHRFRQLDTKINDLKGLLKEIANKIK

Turning to `CCCN(CCC)CCS(=O)(=O)N(Cc1ccc(OC(F)(F)F)cc1)c1cc2ccccc2s1` [Cpd 1, N-(Benzo[b]thiophen-2-yl)-N-(4-trifluoromethoxy-benzyl)-2-(di-propylamino)ethylsulfonamide], the inhibition – broadly, the relative decrease from the control value, in per cent – at 0.2 µM turned out to be 78% and the half-inhibitory concentration (IC50) (as a rule, the concentration needed to halve the response being measured) worked out at 114 nM.
In the case of `O=S(=O)(CCN1CCCCC1)N(Cc1ccc(OC(F)(F)F)cc1)c1cc2ccccc2s1` [Cpd 2, N-(Benzo[b]thiophen-2-yl)-N-(4-trifluoromethoxy-benzyl)-2-(piperidin-1-yl)ethylsulfonamide], the inhibition at 0.2 µM stood at 92% and the IC50 is 33 nM.
Consider `O=S(=O)(CCN1CCCCC1)N(Cc1ccc(OC(F)(F)F)cc1)c1sc2ccccc2c1Cl` [Cpd 3, N-(3-Chlorobenzo[b]thiophen-2-yl)-N-(4-trifluoromethoxy-benzyl)-2-(piperidin-1-yl)ethylsulfonamide], for which the inhibition at 0.2 µM was found to be 97% and the IC50 came to 30 nM.
In the same order, the values of `CCCN(CCC)CCS(=O)(=O)N(Cc1ccc(OC(F)(F)F)cc1)c1sc2ccccc2c1Cl` [Cpd 4, N-(3-Chlorobenzo[b]thiophen-2-yl)-N-(4-trifluoromethoxy-benzyl)-2-(di-propylamino)ethylsulfonamide] are 98% and 24 nM.
Take `CCCN(CCC)CCS(=O)(=O)N(Cc1ccc(OC(F)(F)F)cc1)c1sc2ccccc2c1Br` [Cpd 5, N-(3-Bromobenzo[b]thiophen-2-yl)-N-(4-trifluoromethoxy-benzyl)-2-(di-propylamino)ethylsulfonamide]: the inhibition at 0.2 µM came out at 101% and the IC50 stood at 22 nM.
In the same order, the values of `CCCN(CCC)CCS(=O)(=O)N(Cc1ccc(OC(F)(F)F)cc1)c1sc2ccccc2c1C` [Cpd 6, N-(3-Methylbenzo[b]thiophen-2-yl)-N-(4-trifluoromethoxy-benzyl)-2-(di-propylamino)ethylsulfonamide] are 99% and 9 nM.
The matching figures for `CCCN(C)CCS(=O)(=O)N(Cc1ccc(OC(F)(F)F)cc1)c1sc2ccccc2c1C` [Cpd 7, N-(3-Methylbenzo[b]thiophen-2-yl)-N-(4-trifluoromethoxy-benzyl)-2-(methyl-propylamino)ethylsulfonamide]: 99% and 29 nM.
Take `Cc1c(N(Cc2ccc(OC(F)(F)F)cc2)S(=O)(=O)CCN(C)C(C)C)sc2ccccc12` [Cpd 8, N-(3-Methylbenzo[b]thiophen-2-yl)-N-(4-trifluoromethoxy-benzyl)-2-(methyl-isopropylamino)ethylsulfonamide]: the inhibition at 0.2 µM worked out at 94% and the half-maximal inhibitory concentration (IC50) came out at 50 nM.
The matching figures for `CCN(CC)CCS(=O)(=O)N(Cc1ccc(OC(F)(F)F)cc1)c1sc2ccccc2c1C` [Cpd 9, N-(3-Methylbenzo[b]thiophen-2-yl)-N-(4-trifluoromethoxy-benzyl)-2-(diethylamino)ethylsulfonamide]: 101% and 19 nM.
In the same order, the values of `Cc1c(N(Cc2ccc(OC(F)(F)F)cc2)S(=O)(=O)CCN(C)CCO)sc2ccccc12` [Cpd 10, N-(3-Methylbenzo[b]thiophen-2-yl)-N-(4-trifluoromethoxy-benzyl)-2-(methyl-2-hydroxyethylamino)ethylsulfonamide] are 98% and 29 nM.
The matching figures for `Cc1c(N(Cc2ccc(OC(F)(F)F)cc2)S(=O)(=O)CCN(C)CC(C)C)sc2ccccc12` [Cpd 11, N-(3-Methylbenzo[b]thiophen-2-yl)-N-(4-trifluoromethoxy-benzyl)-2-(methyl-isobutylamino)ethylsulfonamide]: 100% and 22 nM.
For the compound `CCCCN(C)CCS(=O)(=O)N(Cc1ccc(OC(F)(F)F)cc1)c1sc2ccccc2c1C` [Cpd 12, N-(3-Methylbenzo[b]thiophen-2-yl)-N-(4-trifluoromethoxy-benzyl)-2-(methyl-butylamino)ethylsulfonamide], the inhibition at 0.2 µM worked out at 96% and the IC50 is 43 nM.
